Assay results: PubChem BioAssay AID256 (DTP/NCI, 2004)
Several values for one entry are separate records, joined by “and”; a condition that tells them apart may be missing. Equal entries are not always repeated. Inconclusive results and toxic doses are left out.

Test system: CD2F1 mice, L1210 leukemia ip, survival T/C
Assay: NCI In Vivo Anticancer Drug Screen. Data for tumor model L1210 Leukemia (intraperitoneal) in CD2F1 (CDF1) mice
Settings: higher = longer survival
Procedure, shortened: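 Ratio T/C, where T is the treated-group value and C the vehicle-dosed control value, from mice implanted with a transplantable tumor.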

[1] = endpoint: mean survival time, dose: 50.0 mg/kg/injection, schedule: Q01DX009 (ip), vehicle: saline with Tween-80
[2] = endpoint: mean survival time, dose: 100.0 mg/kg/injection, schedule: Q01DX009 (ip), vehicle: saline with Tween-80
[3] = endpoint: mean survival time, dose: 100.0 mg/kg/injection, schedule: Q04DX003 (ip), vehicle: saline with Tween-80
[4] = endpoint: mean survival time, dose: 200.0 mg/kg/injection, schedule: Q01DX009 (ip), vehicle: saline with Tween-80
[5] = endpoint: mean survival time, dose: 200.0 mg/kg/injection, schedule: Q04DX003 (ip), vehicle: saline with Tween-80
[6] = endpoint: mean survival time, dose: 100.0 mg/kg/injection, schedule: Q04DX002 (ip), vehicle: saline with Tween-80
[7] = endpoint: mean survival time, dose: 200.0 mg/kg/injection, schedule: Q04DX002 (ip), vehicle: saline with Tween-80
[8] = endpoint: mean survival time, dose: 400.0 mg/kg/injection, schedule: Q04DX002 (ip), vehicle: saline with Tween-80

CC(=O)c1cc(C)[nH]c1C
T/C [1]: 101 % of control
T/C [2]: 100 % of control
T/C [3]: 102 % of control
T/C [4]: 103 % of control
T/C [5]: 96 % of control
T/C (endpoint: median survival time, dose: 100.0 mg/kg/injection, schedule: Q01DX001 (ip), vehicle: saline with Tween-80): 100 % of control
T/C (endpoint: median survival time, dose: 200.0 mg/kg/injection, schedule: Q01DX001 (ip), vehicle: saline with Tween-80): 100 % of control

CCCCCCCC/C=C\CCCCCCCC(=O)OCCCCCCCC
T/C [6]: 95 % of control
T/C [7]: 95 % of control
T/C [8]: 102 % of control

COCCOCCOCCOCCOCCN
T/C (endpoint: mean survival time, dose: 100.0 mg/kg/injection, schedule: Q04DX003 (ip), vehicle: saline): 103 % of control
T/C (endpoint: mean survival time, dose: 200.0 mg/kg/injection, schedule: Q04DX003 (ip), vehicle: saline): 101 % of control
T/C (endpoint: mean survival time, dose: 400.0 mg/kg/injection, schedule: Q04DX003 (ip), vehicle: saline): 103 % of control

O=C(C(=Nc1ccccc1)c1ccccc1)c1ccccc1
T/C [1]: 100 % of control
T/C [2]: 97 % of control
T/C [4]: 97 % of control

Clc1nnc(Cl)c(Cl)c1Cl
T/C (endpoint: mean survival time, dose: 1.56 mg/kg/injection, schedule: Q04DX003 (ip), vehicle: saline with Tween-80): 88 % of control
T/C (endpoint: mean survival time, dose: 3.13 mg/kg/injection, schedule: Q04DX003 (ip), vehicle: saline with Tween-80): 88 % of control

COc1ccc(C2OC23CC(C)(C)c2ccccc2C3=O)cc1 (stereo not given)
T/C (endpoint: mean survival time, dose: 100.0 mg/kg/injection, schedule: Q01DX009 (ip), vehicle: other): 107 % of control
T/C (endpoint: mean survival time, dose: 200.0 mg/kg/injection, schedule: Q01DX009 (ip), vehicle: other): 100 % of control
T/C (endpoint: mean survival time, dose: 400.0 mg/kg/injection, schedule: Q01DX009 (ip), vehicle: other): 91 % of control

O=C(Nc1ccc(Cl)cc1Cl)SCCO
T/C [2]: 108 % of control
T/C [4]: 101 % of control
T/C (endpoint: mean survival time, dose: 400.0 mg/kg/injection, schedule: Q01DX009 (ip), vehicle: saline with Tween-80): 95 % of control

CCC1(O)C(=O)OCc2c1cc1n(c2=O)Cc2cc3cc(C)ccc3nc2-1 (stereo not given)
T/C (endpoint: median survival time, dose: 10.0 mg/kg/injection, schedule: Q04DX002 (ip), vehicle: saline with Tween-80): 151 % of control and 207 % of control
T/C (endpoint: median survival time, dose: 20.0 mg/kg/injection, schedule: Q04DX002 (ip), vehicle: saline with Tween-80): 151 % of control and 192 % of control
T/C (endpoint: median survival time, dose: 40.0 mg/kg/injection, schedule: Q04DX002 (ip), vehicle: saline with Tween-80): 162 % of control and 195 % of control
T/C (endpoint: median survival time, dose: 80.0 mg/kg/injection, schedule: Q04DX002 (ip), vehicle: saline with Tween-80): 186 % of control
T/C (endpoint: median survival time, dose: 160.0 mg/kg/injection, schedule: Q04DX002 (ip), vehicle: saline with Tween-80): 114 % of control

CNC(=O)Nc1ccc(OS(=O)(=O)N(C)C)cc1
T/C [3]: 101 % of control
T/C [5]: 101 % of control
T/C (endpoint: mean survival time, dose: 400.0 mg/kg/injection, schedule: Q04DX003 (ip), vehicle: saline with Tween-80): 101 % of control

S=c1[nH]n(-c2ccccc2)c(=S)s1
T/C (endpoint: mean survival time, dose: 75.0 mg/kg/injection, schedule: Q04DX003 (ip), vehicle: saline): 100 % of control

NC(=O)N/N=C\c1ccco1
T/C [3]: 102 % of control

OCC1CCC(CO)CC1 (stereo not given)
T/C (endpoint: mean survival time, dose: 6.25 mg/kg/injection, schedule: Q01DX009 (ip), vehicle: Klucel (hydroxypropylcellulose) (HPC)): 100 % of control
T/C (endpoint: mean survival time, dose: 12.5 mg/kg/injection, schedule: Q01DX009 (ip), vehicle: Klucel (hydroxypropylcellulose) (HPC)): 95 % of control
T/C (endpoint: mean survival time, dose: 25.0 mg/kg/injection, schedule: Q01DX009 (ip), vehicle: Klucel (hydroxypropylcellulose) (HPC)): 103 % of control

C/C=C1/CC2C=Nc3cc(O)c(OC)cc3C(=O)N2C1 (stereo not given)
T/C (endpoint: median survival time, dose: 0.02 mg/kg/injection, schedule: Q01DX005 (ip), vehicle: DMSO): 100 % of control
T/C (endpoint: median survival time, dose: 0.04 mg/kg/injection, schedule: Q01DX005 (ip), vehicle: DMSO): 101 % of control
T/C (endpoint: median survival time, dose: 0.08 mg/kg/injection, schedule: Q01DX005 (ip), vehicle: DMSO): 104 % of control
T/C (endpoint: median survival time, dose: 0.16 mg/kg/injection, schedule: Q01DX005 (ip), vehicle: DMSO): 113 % of control
T/C (endpoint: median survival time, dose: 0.32 mg/kg/injection, schedule: Q01DX005 (ip), vehicle: DMSO): 121 % of control

O=C1CN(c2ccc3ccccc3c2)NO1
T/C [3]: 93 % of control
T/C [5]: 93 % of control

Cc1ccc(S(=O)(=O)OC(c2ccccc2)C(F)(F)F)cc1 (stereo not given)
T/C (endpoint: mean survival time, dose: 100.0 mg/kg/injection, schedule: Q01DX001 (ip), vehicle: saline with Tween-80): 100 % of control
T/C (endpoint: mean survival time, dose: 200.0 mg/kg/injection, schedule: Q01DX001 (ip), vehicle: saline with Tween-80): 103 % of control
T/C (endpoint: mean survival time, dose: 400.0 mg/kg/injection, schedule: Q01DX001 (ip), vehicle: saline with Tween-80): 94 % of control

CC(C)OC(=O)N(C(=O)OC(C)C)c1ccccc1
T/C [6]: 94 % of control
T/C [7]: 108 % of control
T/C [8]: 94 % of control
